For 36 compounds, IC50 results are on record in US20250353820A1, “ANTIVIRAL PYRAZOLOPYRIDINONE COMPOUNDS” (Novartis AG, priority 2019, published 2025).

Structures are written as SMILES. pIC50: −log10 of the molar value. Counter-ions that a name gives are not always drawn.

The target of this assay is human HSV DNA polymerase UL30 (Human herpesvirus 1 (strain 17) (HHV-1) (Human herpes simplex virus 1), UniProt P04293). The assay can be described thus: biochemical. To be noted: 625 pM HSV polymerase, 20 minutes at room temperature; read-out: HSV-polymerase Biochemical IC50.
In the case of `Cn1nc(C(=O)NCc2ccc(Cl)cc2)c2c1C(=O)N(CC1(S(=O)(=O)NC(C)(CO)CO)CC1)CC2` [Example 153, N-(4-Chlorobenzyl)-6-((1-(N-(1,3-dihydroxy-2-methylpropan-2-yl)sulfamoyl)cyclopropyl)methyl)-1-methyl-7-oxo-4,5,6,7-tetrahydro-1H-pyrazolo[3,4-c]pyridine-3-carboxamide], the pIC50 was 6.53.

`Cn1nc(C(=O)NCc2ccc(C#N)cc2)c2c1C(=O)N(CC1(S(=O)(=O)Nc3ccccn3)CC1)CC2` [Example 155, N-(4-Cyanobenzyl)-1-methyl-7-oxo-6-((1-(N-(pyridin-2-yl)sulfamoyl)cyclopropyl)methyl)-4,5,6,7-tetrahydro-1H-pyrazolo[3,4-c]pyridine-3-carboxamide]: the pIC50 is 7.11. `Cn1ccc(NS(=O)(=O)C2(CN3CCc4c(C(=O)NCc5ccc(C#N)cc5)nn(C)c4C3=O)CC2)n1` [Example 156]: the pIC50 was 7.21. Turning to `Cc1cccc(NS(=O)(=O)C2(CN3CCc4c(C(=O)NCc5ccc(C#N)cc5)nn(C)c4C3=O)CC2)n1` [Example 157], the pIC50 is 7.34.

In the case of `Cn1nc(C(=O)NCc2ccc(Cl)cc2)c2c1C(=O)N(CC1(S(=O)(=O)Nc3ccccn3)CC1)CC2` [Example 158], the pIC50 was 7.24. As to `COc1cccnc1NS(=O)(=O)C1(CN2CCc3c(C(=O)NCc4ccc(C#N)cc4)nn(C)c3C2=O)CC1` [Example 159], the pIC50 is 6.37. Consider `COc1ccc(C)nc1NS(=O)(=O)C1(CN2CCc3c(C(=O)NCc4ccc(C#N)cc4)nn(C)c3C2=O)CC1` [Example 160], for which the pIC50 is 6.52. On to `Cc1ncccc1NS(=O)(=O)C1(CN2CCc3c(C(=O)NCc4ccc(C#N)cc4)nn(C)c3C2=O)CC1` [Example 161], for which the pIC50 is 7.40. With `COc1ncccc1NS(=O)(=O)C1(CN2CCc3c(C(=O)NCc4ccc(C#N)cc4)nn(C)c3C2=O)CC1` [Example 162] the figure was 7.74; with `COc1cccc(NS(=O)(=O)C2(CN3CCc4c(C(=O)NCc5ccc(C#N)cc5)nn(C)c4C3=O)CC2)n1` [Example 163], 7.44. With `Cc1cccnc1NS(=O)(=O)C1(CN2CCc3c(C(=O)NCc4ccc(C#N)cc4)nn(C)c3C2=O)CC1` [Example 164] the figure was 6.73; with `Cc1cc(NS(=O)(=O)C2(CN3CCc4c(C(=O)NCc5ccc(Cl)cc5)nn(C)c4C3=O)CC2)no1` [Example 166], 7.92; with `Cn1nc(C(=O)NCc2ccc(C#N)cc2)c2c1C(=O)N(CC1(S(=O)(=O)Nc3cc(C4CC4)on3)CC1)CC2` [Example 167], 6.98. With `Cn1nc(C(=O)NCc2ccc(C#N)cc2)c2c1C(=O)N(CC1(S(=O)(=O)C3CCOCC3)CC1)CC2` [Example 169] the figure was 6.62; with `Cn1nc(C(=O)NCc2ccc(C#N)cc2)c2c1C(=O)N(CC1(S(=O)(=O)C3(C)COC3)CC1)CC2` [Example 172, N-(4-Cyanobenzyl)-1-methyl-6-((1-((3-methyloxetan-3-yl)sulfonyl)cyclopropyl)methyl)-7-oxo-4,5,6,7-tetrahydro-1H-pyrazolo[3,4-c]pyridine-3-carboxamide], 7.20; with `Cn1nc(C(=O)NCc2ccc(C#N)cc2)c2c1C(=O)N(CC1(S(=O)(=O)C3(CO)COC3)CC1)CC2` [Example 173, N-(4-Cyanobenzyl)-6-((1-((3-(hydroxymethyl)oxetan-3-yl)sulfonyl)cyclopropyl)methyl)-1-methyl-7-oxo-4,5,6,7-tetrahydro-1H-pyrazolo[3,4-c]pyridine-3-carboxamide], 7.21. Turning to `Cn1nc(C(=O)NCc2ccc(C#N)cc2)c2c1C(=O)N(CC1(S(=O)(=O)C3(CN)COC3)CC1)CC2` [Example 174, 6-((1-((3-(Aminomethyl)oxetan-3-yl)sulfonyl)cyclopropyl)methyl)-N-(4-cyanobenzyl)-1-methyl-7-oxo-4,5,6,7-tetrahydro-1H-pyrazolo[3,4-c]pyridine-3-carboxamide], the pIC50 was 7.04. To `Cn1nc(C(=O)NCc2ccc(Cl)cc2)c2c1C(=O)N(CC1(S(=O)(=O)C(C)(CO)CO)CC1)CC2` [Example 175, N-(4-chlorobenzyl)-6-((1-((1,3-dihydroxy-2-methylpropan-2-yl)sulfonyl)cyclopropyl)methyl)-1-methyl-7-oxo-4,5,6,7-tetrahydro-1H-pyrazolo[3,4-c]pyridine-3-carboxamide] belongs 7.57. Turning to `COCC(C)(COC)S(=O)(=O)C1(CN2CCc3c(C(=O)NCc4ccc(C#N)cc4)nn(C)c3C2=O)CC1` [Example 179, N-(4-Cyanobenzyl)-6-((1-((1,3-dimethoxy-2-methylpropan-2-yl)sulfonyl)cyclopropyl)methyl)-1-methyl-7-oxo-4,5,6,7-tetrahydro-1H-pyrazolo[3,4-c]pyridine-3-carboxamide], the pIC50 is 7.21.

Regarding `Cn1nc(C(=O)NCc2ccc(C#N)cc2)c2c1C(=O)N(CC1(S(=O)(=O)C(C)(CN)CO)CC1)CC2` (stereo not drawn) [Example 183, 6-((1-((1-Amino-3-hydroxy-2-methylpropan-2-yl)sulfonyl)cyclopropyl)methyl)-N-(4-cyanobenzyl)-1-methyl-7-oxo-4,5,6,7-tetrahydro-1H-pyrazolo[3,4-c]pyridine-3-carboxamide], the pIC50 was 7.19. With `Cn1nc(C(=O)NCc2ccc(Cl)cc2)c2c1C(=O)N(CC1(S(=O)(=O)C(C)(C)[C@@H](O)CO)CC1)CC2` [Example 190, (S)—N-(4-Chlorobenzyl)-6-((1-((3,4-dihydroxy-2-methylbutan-2-yl)sulfonyl)cyclopropyl)methyl)-1-methyl-7-oxo-4,5,6,7-tetrahydro-1H-pyrazolo[3,4-c]pyridine-3-carboxamide], the pIC50 was 7.70. With `Cn1nc(C(=O)NCc2ccc(Cl)cc2)c2c1C(=O)N(CC1(S(=O)(=O)C(C)(C)[C@H](O)CO)CC1)CC2` [Example 191, (R)—N-(4-Chlorobenzyl)-6-((1-((3,4-dihydroxy-2-methylbutan-2-yl)sulfonyl)cyclopropyl)methyl)-1-methyl-7-oxo-4,5,6,7-tetrahydro-1H-pyrazolo[3,4-c]pyridine-3-carboxamide] the figure was 7.96; with `Cn1nc(C(=O)NCc2ccc(C#N)cc2)c2c1C(=O)N(CC1(S(=O)(=O)C(C)(C)[C@@H](O)CO)CC1)CC2` [Example 192, (S)—N-(4-cyanobenzyl)-6-((1-((3,4-dihydroxy-2-methylbutan-2-yl)sulfonyl)cyclopropyl)methyl)-1-methyl-7-oxo-4,5,6,7-tetrahydro-1H-pyrazolo[3,4-c]pyridine-3-carboxamide], 7.52. `Cn1nc(C(=O)NCc2ccc(C#N)cc2)c2c1C(=O)N(CC1(S(=O)(=O)C(C)(C)[C@H](O)CN)CC1)CC2` [Example 198, (R)-6-((1-((4-amino-3-hydroxy-2-methylbutan-2-yl)sulfonyl)cyclopropyl)methyl)-N-(4-cyanobenzyl)-1-methyl-7-oxo-4,5,6,7-tetrahydro-1H-pyrazolo[3,4-c]pyridine-3-carboxamide]: the pIC50 was 7.64. For `Cn1nc(C(=O)NCc2ccc(C#N)cc2)c2c1C(=O)N(CC1(S(=O)(=O)C3(C(O)CN)CC3)CC1)CC2` (stereo not drawn) [Example 208], the pIC50 is 7.66.

On to `Cn1nc(C(=O)NCc2ccc(Cl)cc2)c2c1C(=O)N(CC1(S(=O)(=O)C3(C(O)CN)CC3)CC1)CC2` (stereo not drawn) [Example 209], for which the pIC50 was 7.80. To `Cn1nc(C(=O)NCc2ccc(C#N)cc2)c2c1C(=O)N(CC1(S(=O)(=O)C(C)(C)[C@H](N)CO)CC1)CC2` [Example 213, (R)-6-((1-((3-amino-4-hydroxy-2-methylbutan-2-yl)sulfonyl)cyclopropyl)methyl)-N-(4-cyanobenzyl)-1-methyl-7-oxo-4,5,6,7-tetrahydro-1H-pyrazolo[3,4-c]pyridine-3-carboxamide] belongs 7.32; to `Cn1nc(C(=O)NCc2ccc(Cl)cc2)c2c1C(=O)N(CC1(S(=O)(=O)C(C)(C)[C@H](N)CO)CC1)CC2` [Example 214, (R)-6-((1-((3-Amino-4-hydroxy-2-methylbutan-2-yl)sulfonyl)cyclopropyl)methyl)-N-(4-chlorobenzyl)-1-methyl-7-oxo-4,5,6,7-tetrahydro-1H-pyrazolo[3,4-c]pyridine-3-carboxamide hydrochloride], 7.49; to `N#Cc1ccc(CNC(=O)c2nn(CCO)c3c2CCN(CC2(S(=O)(=O)C4CC4)CC2)C3=O)cc1` [Example 216, N-(4-Cyanobenzyl)-6-((1-(cyclopropylsulfonyl)cyclopropyl)methyl)-1-(2-hydroxyethyl)-7-oxo-4,5,6,7-tetrahydro-1H-pyrazolo[3,4-c]pyridine-3-carboxamide], 7.16. With `CC1(S(=O)(=O)C2(CN3CCc4c(C(=O)NCc5ccc(C#N)cc5)nn(CCO)c4C3=O)CC2)CC1` [Example 217] the figure was 7.59. `O=C(NCc1ccc(Cl)cc1)c1nn(CCO)c2c1CCN(CC1(S(=O)(=O)C3CC3)CC1)C2=O` [Example 218]: the pIC50 was 7.30.

Regarding `CS(=O)(=O)C1(CN2CCc3c(C(=O)NCc4ccc(Cl)cc4)nn(CCO)c3C2=O)CC1` [Example 219], the pIC50 is 6.40. As to `CC(C)(CO)S(=O)(=O)C1(CN2CCc3c(C(=O)NCc4ccc(C#N)cc4)nn(CCO)c3C2=O)CC1` [Example 220], the pIC50 is 7.64. `CC(C)(CO)S(=O)(=O)C1(CN2CCc3c(C(=O)NCc4ccc(Cl)cc4)nn(CCO)c3C2=O)CC1` [Example 221]: the pIC50 is 7.89.

Take `CC1(S(=O)(=O)C2(CN3CCc4c(C(=O)NCc5ccc(Cl)cc5)nn(CCOCCO)c4C3=O)CC2)CC1` [Example 222, N-(4-Chlorobenzyl)-1-(2-(2-hydroxyethoxy)ethyl)-6-((1-((1-methylcyclopropyl)sulfonyl)cyclopropyl)methyl)-7-oxo-4,5,6,7-tetrahydro-1H-pyrazolo[3,4-c]pyridine-3-carboxamide]: the pIC50 was 7.37.

Regarding `CC1(S(=O)(=O)C2(CN3CCc4c(C(=O)NCc5ccc(Cl)cc5)nn(CCOCCN)c4C3=O)CC2)CC1` [Example 223, 1-(2-(2-aminoethoxy)ethyl)-N-(4-chlorobenzyl)-6-((1-((1-methylcyclopropyl)sulfonyl)cyclopropyl)methyl)-7-oxo-4,5,6,7-tetrahydro-1H-pyrazolo[3,4-c]pyridine-3-carboxamide], the pIC50 was 7.46.

In general, pIC50 refers to the IC50 on a negative log10 scale, so that one unit is a factor of ten.
